A short description of data set [1]: Forced degradation of HCP API under stress conditions (0.1 N HCl, 0.1 N NaOH, dry heat). It counts as physicochemical. Particulars: 3 different stress conditions: 0.1 N HCl, qualitative. The procedure:
To develop this method, Hydrocortisone sodium phosphate API was kept under stress conditions. These stress conditions included treatment with 0.1 N HCl, 0.1 N NaOH and dry heat. This was performed to investigate the nature of API and its compatibility with the stress conditions. It also helped generate degradation products to assess the specificity of the HPLC method under development. Information on degradation products and the conditions used to generate them was used to optimize the method for better resolution of such degradation products on chromatogram. FIGS. 3A-3C show chromatograms of HCP under stress conditions.
The proportions in which the degradants formed depended on the stress condition. Stress studies performed on the API were done for qualitative purpose only.

For data set [2] the following is noted: light, strong acids and alkalies; cited from earlier work.

With `C[C@]12CCC(=O)C=C1CC[C@@H]1[C@@H]2[C@@H](O)C[C@@]2(C)[C@H]1CC[C@]2(O)C(=O)COP(=O)([O-])[O-].[Na+].[Na+]` [HCP, Hydrocortisone sodium phosphate], in data set [1], the “forced degradation outcome (in words)” value is on record as “formation of Hydrocortisone, other common degradants”.

Regarding `C[C@]12CCC(=O)C=C1CC[C@@H]1[C@@H]2[C@@H](O)C[C@@]2(C)[C@H]1CC[C@]2(O)C(=O)CO` [Hydrocortisone], the “stability (in words)” value in data set [2] is “sensitive to light and unstable in strong acids and alkalies”.
